Assay results from PubChem BioAssay AID330 (DTP/NCI, 2004).
“And” between values parts separate entries of the source, which are not always exact repeats. Equal values may be shown once. Toxic doses and inconclusive results are not listed.

System: P388 leukemia ip, CD2F1 mice, survival T/C
Assay: NCI In Vivo Anticancer Drug Screen. Data for tumor model P388 Leukemia (intraperitoneal) in CD2F1 (CDF1) mice
Conditions: endpoint: median survival time, higher = longer survival
Method in brief: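 Mice carrying the transplanted tumor received test compound or vehicle. Survival was recorded in each group, and the value is the treated-group measurement divided by that of the vehicle-treated control group.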

[1] = dose: 50.0 mg/kg/injection, schedule: Q01DX009 (ip), vehicle: saline
[2] = dose: 100.0 mg/kg/injection, schedule: Q01DX009 (ip), vehicle: saline
[3] = dose: 200.0 mg/kg/injection, schedule: Q01DX009 (ip), vehicle: saline
[4] = dose: 60.0 mg/kg/injection, schedule: Q01DX005 (ip), vehicle: saline with Tween-80
[5] = dose: 120.0 mg/kg/injection, schedule: Q01DX005 (ip), vehicle: saline with Tween-80
[6] = dose: 240.0 mg/kg/injection, schedule: Q01DX005 (ip), vehicle: saline with Tween-80
[7] = dose: 200.0 mg/kg/injection, schedule: Q01DX005 (ip), vehicle: Klucel (hydroxypropylcellulose) (HPC)
[8] = dose: 50.0 mg/kg/injection, schedule: Q01DX009 (ip), vehicle: Klucel (hydroxypropylcellulose) (HPC)
[9] = dose: 100.0 mg/kg/injection, schedule: Q01DX009 (ip), vehicle: Klucel (hydroxypropylcellulose) (HPC)
[10] = dose: 50.0 mg/kg/injection, schedule: Q01DX005 (ip), vehicle: saline with Tween-80
[11] = dose: 100.0 mg/kg/injection, schedule: Q01DX005 (ip), vehicle: saline with Tween-80
[12] = dose: 200.0 mg/kg/injection, schedule: Q01DX005 (ip), vehicle: saline with Tween-80
[13] = dose: 50.0 mg/kg/injection, schedule: Q01DX009 (ip), vehicle: saline with Tween-80
[14] = dose: 100.0 mg/kg/injection, schedule: Q01DX009 (ip), vehicle: saline with Tween-80
[15] = dose: 200.0 mg/kg/injection, schedule: Q01DX009 (ip), vehicle: saline with Tween-80

C=C(CO)C(=O)OC1CC(=C)C2CC(O)C(C)C2C2OC(=O)C(=C)C12 (stereo not drawn)
T/C (dose: 0.75 mg/kg/injection, schedule: Q01DX009 (ip), vehicle: Klucel (hydroxypropylcellulose) (HPC)): 100 % of control and 114 % of control | T/C (dose: 1.5 mg/kg/injection, schedule: Q01DX009 (ip), vehicle: Klucel (hydroxypropylcellulose) (HPC)): 104 % of control and 91 % of control | T/C (dose: 3.0 mg/kg/injection, schedule: Q01DX009 (ip), vehicle: Klucel (hydroxypropylcellulose) (HPC)): 98 % of control and 97 % of control | T/C (dose: 6.0 mg/kg/injection, schedule: Q01DX009 (ip), vehicle: Klucel (hydroxypropylcellulose) (HPC)): 102 % of control and 107 % of control and 112 % of control | T/C (dose: 12.0 mg/kg/injection, schedule: Q01DX009 (ip), vehicle: Klucel (hydroxypropylcellulose) (HPC)): 103 % of control | T/C (dose: 24.0 mg/kg/injection, schedule: Q01DX009 (ip), vehicle: Klucel (hydroxypropylcellulose) (HPC)): 98 % of control

O=C(O)c1c[nH]c2cc(OCc3ccccc3)ccc2c1=O
T/C [1]: 99 % of control | T/C [2]: 98 % of control | T/C [3]: 103 % of control

CC(C)OC(=O)NN(C(=O)OC(C)C)N(C)C
T/C (dose: 60.0 mg/kg/injection, schedule: Q01DX005 (ip), vehicle: Klucel (hydroxypropylcellulose) (HPC)): 100 % of control | T/C (dose: 120.0 mg/kg/injection, schedule: Q01DX005 (ip), vehicle: Klucel (hydroxypropylcellulose) (HPC)): 100 % of control | T/C (dose: 240.0 mg/kg/injection, schedule: Q01DX005 (ip), vehicle: Klucel (hydroxypropylcellulose) (HPC)): 103 % of control

COc1ccc2c(c1)CN(Cc1ccccc1)CO2
T/C [4]: 104 % of control | T/C [5]: 105 % of control | T/C [6]: 102 % of control

CCOC(=O)N(NC(=O)Nc1ccccc1)C(c1ccccc1)c1ccccc1
T/C (dose: 75.0 mg/kg/injection, schedule: Q01DX009 (ip), vehicle: saline with Tween-80): 94 % of control | T/C (dose: 150.0 mg/kg/injection, schedule: Q01DX009 (ip), vehicle: saline with Tween-80): 94 % of control | T/C (dose: 300.0 mg/kg/injection, schedule: Q01DX009 (ip), vehicle: saline with Tween-80): 98 % of control

O=C(c1ccc(F)cc1)C1CCN(CCCn2c(=O)[nH]c3ccccc32)CC1
T/C [1]: 100 % of control | T/C [2]: 101 % of control | T/C [3]: 100 % of control

Cc1cccc(Nc2nc(C)nc3[nH]cc(-c4ccccc4)c23)c1
T/C (dose: 6.25 mg/kg/injection, schedule: Q01DX005 (ip), vehicle: Klucel (hydroxypropylcellulose) (HPC)): 91 % of control | T/C (dose: 12.5 mg/kg/injection, schedule: Q01DX005 (ip), vehicle: Klucel (hydroxypropylcellulose) (HPC)): 90 % of control | T/C [7]: 88 % of control

COC1C(/C=C2\CC(=O)N(c3ccccc3)C2=O)OC2OC(C)(C)OC21 (stereo not drawn)
T/C (dose: 100.0 mg/kg/injection, schedule: Q01DX001 (ip), vehicle: suspension in saline): 97 % of control | T/C (dose: 200.0 mg/kg/injection, schedule: Q01DX001 (ip), vehicle: suspension in saline): 102 % of control | T/C (dose: 400.0 mg/kg/injection, schedule: Q01DX001 (ip), vehicle: suspension in saline): 100 % of control

COc1cc(OC)c(NC(=S)Nc2sc3c(c2C#N)CCCC3)cc1Cl
T/C (dose: 50.0 mg/kg/injection, schedule: Q01DX009 (ip), vehicle: gum acacia): 110 % of control | T/C (dose: 100.0 mg/kg/injection, schedule: Q01DX009 (ip), vehicle: gum acacia): 103 % of control | T/C (dose: 200.0 mg/kg/injection, schedule: Q01DX009 (ip), vehicle: gum acacia): 102 % of control

CCN(CC)C(=S)C(C)=C(Sc1ccccc1)Sc1ccccc1
T/C (dose: 50.0 mg/kg/injection, schedule: Q01DX005 (ip), vehicle: Klucel (hydroxypropylcellulose) (HPC)): 100 % of control | T/C (dose: 100.0 mg/kg/injection, schedule: Q01DX005 (ip), vehicle: Klucel (hydroxypropylcellulose) (HPC)): 99 % of control | T/C [7]: 99 % of control

O=c1oc2ccccc2cc1-c1ccc(Br)c2ccccc12
T/C [8]: 93 % of control | T/C [9]: 100 % of control | T/C (dose: 200.0 mg/kg/injection, schedule: Q01DX009 (ip), vehicle: Klucel (hydroxypropylcellulose) (HPC)): 95 % of control

Cc1csc(NN=O)n1
T/C (dose: 1.56 mg/kg/injection, schedule: Q01DX009 (ip), vehicle: water): 98 % of control | T/C (dose: 3.12 mg/kg/injection, schedule: Q01DX009 (ip), vehicle: water): 104 % of control and 95 % of control | T/C (dose: 6.25 mg/kg/injection, schedule: Q01DX009 (ip), vehicle: water): 105 % of control and 96 % of control | T/C (dose: 12.5 mg/kg/injection, schedule: Q01DX009 (ip), vehicle: water): 100 % of control and 102 % of control | T/C (dose: 25.0 mg/kg/injection, schedule: Q01DX009 (ip), vehicle: water): 99 % of control and 102 % of control | T/C (dose: 50.0 mg/kg/injection, schedule: Q01DX009 (ip), vehicle: water): 111 % of control

COc1ccc(CCN2C(=O)C(=O)N(c3ccc([N+](=O)[O-])cc3)C2=O)cc1OC
T/C [1]: 91 % of control | T/C [2]: 94 % of control | T/C [3]: 94 % of control

O=C1c2cc3c(cc2C(=O)c2ncccc21)CCCC3
T/C [10]: 98 % of control | T/C [11]: 86 % of control | T/C [12]: 89 % of control

O=c1oc2c(c(N(c3ccccc3)c3ccccc3)c1Cl)CSc1ccccc1-2
T/C (dose: 100.0 mg/kg/injection, schedule: Q04DX003 (ip), vehicle: saline with Tween-80): 90 % of control

COC1CCC(NC(=O)N(N=O)C2CCC(OC)CC2)CC1 (stereo not drawn)
T/C (dose: 25.0 mg/kg/injection, schedule: Q01DX001 (ip), vehicle: distilled water + Tween-80): 109 % of control | T/C (dose: 50.0 mg/kg/injection, schedule: Q01DX001 (ip), vehicle: distilled water + Tween-80): 100 % of control | T/C (dose: 100.0 mg/kg/injection, schedule: Q01DX001 (ip), vehicle: distilled water + Tween-80): 100 % of control | T/C (dose: 200.0 mg/kg/injection, schedule: Q01DX001 (ip), vehicle: distilled water + Tween-80): 105 % of control

OCCCCc1nccc2c1[nH]c1ccccc12
T/C (dose: 12.5 mg/kg/injection, schedule: Q01DX009 (ip), vehicle: Klucel (hydroxypropylcellulose) (HPC)): 106 % of control | T/C (dose: 25.0 mg/kg/injection, schedule: Q01DX009 (ip), vehicle: Klucel (hydroxypropylcellulose) (HPC)): 106 % of control | T/C [8]: 104 % of control | T/C [9]: 95 % of control

NC(=O)NN1CC(=O)N(c2ccccc2)CC1=O
T/C [13]: 97 % of control | T/C [14]: 100 % of control | T/C [15]: 95 % of control

COc1ccc(/C=C/C(=O)c2ccccc2)cc1OC
T/C [13]: 103 % of control | T/C [14]: 114 % of control | T/C [15]: 100 % of control

CN(C)C1(c2ccccc2)CS(=O)(=O)C1
T/C [13]: 96 % of control | T/C [14]: 96 % of control | T/C [15]: 94 % of control

O=C(NCCc1nc(-c2nc(C(=O)O)cs2)cs1)c1ccccc1
T/C [14]: 100 % of control | T/C [15]: 100 % of control | T/C (dose: 400.0 mg/kg/injection, schedule: Q01DX009 (ip), vehicle: saline with Tween-80): 90 % of control

O=C(O)CCCCC1CCSS1 (stereo not drawn)
T/C (dose: 15.63 mg/kg/injection, schedule: Q01DX005 (ip), vehicle: Klucel (hydroxypropylcellulose) (HPC)): 103 % of control | T/C (dose: 31.25 mg/kg/injection, schedule: Q01DX005 (ip), vehicle: Klucel (hydroxypropylcellulose) (HPC)): 103 % of control | T/C (dose: 62.5 mg/kg/injection, schedule: Q01DX005 (ip), vehicle: Klucel (hydroxypropylcellulose) (HPC)): 94 % of control | T/C (dose: 125.0 mg/kg/injection, schedule: Q01DX005 (ip), vehicle: Klucel (hydroxypropylcellulose) (HPC)): 97 % of control

O=NNc1ccc(Oc2ccccc2)cn1
T/C (dose: 6.25 mg/kg/injection, schedule: Q01DX009 (ip), vehicle: saline): 156 % of control

NC(=NCCCC(NC(=O)c1ccccc1)C(=O)O)NC(=O)c1ccccc1 (stereo not drawn)
T/C (dose: 25.0 mg/kg/injection, schedule: Q01DX009 (ip), vehicle: saline with Tween-80): 108 % of control and 91 % of control | T/C [13]: 100 % of control and 90 % of control | T/C [14]: 93 % of control and 96 % of control | T/C [15]: 86 % of control and 97 % of control

Cc1ccc(NC(=O)CCCC(=O)C(C#N)c2ccccc2C)cc1C (stereo not drawn)
T/C [4]: 113 % of control | T/C [5]: 103 % of control | T/C [6]: 102 % of control

COC(=O)C1=[N+]([O-])OC(C(=O)OC)C1c1ccc(NC(C)=O)cc1 (stereo not drawn)
T/C [10]: 98 % of control | T/C [11]: 93 % of control | T/C [12]: 90 % of control

CCOC(=O)C1=C(NC23CC4CC(CC(C4)C2)C3)OCC1=O
T/C [4]: 107 % of control | T/C [5]: 110 % of control

Cc1cc(=O)c2c(ccc3cc4ccccc4cc32)[nH]1
T/C [10]: 98 % of control | T/C [11]: 98 % of control | T/C [12]: 97 % of control

COc1ccc2c(c1)CCC1C2=CCP1(C)=O (stereo not drawn)
T/C (dose: 25.0 mg/kg/injection, schedule: Q01DX009 (ip), vehicle: saline): 97 % of control | T/C [1]: 101 % of control | T/C [2]: 93 % of control | T/C [3]: 91 % of control
